Where two headings read alike, the source gives them in different places.
Key:
full-length human RORγt = full-length human RORγt (Homo sapiens (Human), UniProt P51449); test: RORγt (full-length human) reporter assay, Conditions B or C; assay type: cell-based; settings: for inhibition at 3 µM: at 3 μM compound concentration; for IC50: read-out: RORγt (FL) Reporter Assay B or C, IC50; for RORγt (FL) Reporter Assay B or C, % inhibition (value marked *): marked *: footnote not given
Outline: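 HEK293T cells transiently co-transfected with GAL4-DBD–full-length human RORγt (nt 142-1635, NM_001001523.1) plus GAL4-firefly and CMV-Renilla luciferase reporters; compounds added 4-6 h post-transfection for 16-20 h in 1.3% FBS, 0.1% DMSO. Firefly signal normalized to DMSO and saturating reference compound, then to Renilla; IC50 from concentration plots.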

[1] = target: human RORγt ligand binding domain (RORγt LBD) (Homo sapiens (Human), UniProt P51449); test: RORγt ThermoFluor® assay (thermal shift binding); settings: read-out: ThermoFluor® Assay, Kd
Sequence of human RORγt ligand binding domain (RORγt LBD) (P51449 other isoform, or with tags, fused parts or gaps): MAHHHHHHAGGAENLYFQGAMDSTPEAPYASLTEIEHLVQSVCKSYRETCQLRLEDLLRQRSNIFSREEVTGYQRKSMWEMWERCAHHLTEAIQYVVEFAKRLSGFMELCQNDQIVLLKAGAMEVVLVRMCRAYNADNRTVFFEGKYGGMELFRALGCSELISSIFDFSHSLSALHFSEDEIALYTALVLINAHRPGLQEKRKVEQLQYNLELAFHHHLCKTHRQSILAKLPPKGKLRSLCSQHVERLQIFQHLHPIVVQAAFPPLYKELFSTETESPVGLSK
Outline: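 His-tagged human RORγt LBD (0.065 mg/mL) with 60 μM 1,8-ANS in 100 mM Hepes pH 7.0, 10 mM NaCl, 2.5 mM GSH, 0.002% Tween-20 was heated at 1 °C/min.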

[2] = read-out: RORγt (FL) Reporter Assay B or C, % inhibition

Sequence of full-length human RORγt (P51449 other isoform, or with tags, fused parts or gaps): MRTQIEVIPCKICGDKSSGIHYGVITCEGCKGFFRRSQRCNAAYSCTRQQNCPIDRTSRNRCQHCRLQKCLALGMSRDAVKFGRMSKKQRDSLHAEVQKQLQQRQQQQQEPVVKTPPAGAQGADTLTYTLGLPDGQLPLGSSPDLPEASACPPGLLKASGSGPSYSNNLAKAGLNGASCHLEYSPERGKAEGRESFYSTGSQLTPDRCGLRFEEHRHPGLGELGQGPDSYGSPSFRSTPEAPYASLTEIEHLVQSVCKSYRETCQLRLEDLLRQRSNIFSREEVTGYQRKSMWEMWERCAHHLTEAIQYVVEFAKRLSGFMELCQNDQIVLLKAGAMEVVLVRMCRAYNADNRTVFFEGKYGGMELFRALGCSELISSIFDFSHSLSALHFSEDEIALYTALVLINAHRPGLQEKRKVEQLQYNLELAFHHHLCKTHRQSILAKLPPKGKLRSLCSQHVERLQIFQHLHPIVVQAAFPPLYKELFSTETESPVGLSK

SMILES | inhibition at 3 µM (full-length human RORγt; [2]) [%] | IC50 (full-length human RORγt) [µM] | Kd [1] [µM] | RORγt (FL) Reporter Assay B or C, % inhibition (value marked *) (full-length human RORγt; Conditions B or C) | IC50 (full-length human RORγt; Conditions B or C) [µM] | inhibition at 1 µM (full-length human RORγt; at 1 μM compound concentration, read-out: RORγt (FL) Reporter Assay B or C, % inhibition) [%]
C[C@H]1CCCN1C(=O)c1nc(C(=O)NCc2nnn[nH]2)sc1-c1cnc(NC(C)(C)C)cc1C(F)(F)F [Example 303, (S)—N-((1H-Tetrazol-5-yl)methyl)-5-(6-(tert-butylamino)-4-(trifluoromethyl)pyridin-3-yl)-4-(2-methylpyrrolidine-1-carbonyl)thiazole-2-carboxamide] | 88 | 0.74 | 0.015 | – | – | –
C[C@@H](NC(=O)c1nc(C(=O)N2C3CCC2CC3)c(-c2cnc(NC3(C)CCC3)cc2C(F)F)s1)C(C)(C)O [Example 329, 4-((1s,4s)-7-Azabicyclo[2.2.1]heptane-7-carbonyl)-5-(4-(difluoromethyl)-6-((1-methylcyclobutyl)amino)pyridin-3-yl)-N—((R)-3-hydroxy-3-methylbutan-2-yl)thiazole-2-carboxamide] | 89 | 0.038 | 0.0017 | – | – | –
C[C@H](NC(=O)c1nc(C(=O)N2C3CCC2CC3)c(-c2cnc(NC3(C)CCC3)cc2C(F)F)s1)C(C)(C)O [Example 189] | – | – | 0.0036 | 101* % | 0.098 | –
C[C@H]1CCCN1C(=O)c1nc(C(=O)NCC(C)(C)O)sc1-c1cnc(NC(C)(C)C)cc1C(F)F [Example 265, 5-[6-(tert-Butylamino)-4-(difluoromethyl)-3-pyridyl]-N-(2-hydroxy-2-methyl-propyl)-4-[(2S)-2-methylpyrrolidine-1-carbonyl]thiazole-2-carboxamide] | 98 | 0.075 | 0.0064 | – | – | –
C[C@H]1CCCN1C(=O)c1nc(C(=O)N[C@H](C)C(C)(C)O)sc1-c1cnc(N[C@H](C)C(F)(F)F)cc1C(F)F [Example 306, 5-(4-(Difluoromethyl)-6-(((R)-1,1,1-trifluoropropan-2-yl)amino)pyridin-3-yl)-N—((R)-3-hydroxy-3-methylbutan-2-yl)-4-((S)-2-methylpyrrolidine-1-carbonyl)thiazole-2-carboxamide] | 104 | 0.13 | 0.01 | – | – | –
CC[C@H](Nc1cc(C(F)F)c(-c2sc(C(=O)N[C@H]3CCC[C@@H]3O)nc2C(=O)N2C3CCC2CC3)cn1)C(F)(F)F [Example 210, 4-((1s,4s)-7-Azabicyclo[2.2.1]heptane-7-carbonyl)-5-(4-(difluoromethyl)-6-(((1S)-1-(trifluoromethyl)propyl)amino)-3-pyridyl)-N-((1S,2S)-2-hydroxycyclopentyl)thiazole-2-carboxamide] | – | – | 0.00069 | 105* % | 0.021 | –
CC[C@H](Nc1cc(C(F)F)c(-c2sc(C(=O)N[C@@H]3C[C@H]3O)nc2C(=O)N2CCC[C@@H]2C)cn1)C(F)(F)F (relative stereo) [Example 213, 5-(4-(Difluoromethyl)-6-(((S)-1,1,1-trifluorobutan-2-yl)amino)pyridin-3-yl)-N-((1R*,2R*)-2-hydroxycyclopropyl)-4-((S)-2-methylpyrrolidine-1-carbonyl)thiazole-2-carboxamide] | – | – | 0.0061 | 103* % | 0.019 | –
C[C@H]1CCCN1C(=O)c1nc(C(=O)NCC(C)(C)O)sc1-c1cnc(N[C@H]2CCCC2(F)F)cc1C(F)(F)F (single isomer, unassigned) [Example 279, 5-(6-(((S*)-2,2-Difluorocyclopentyl)amino)-4-(trifluoromethyl)pyridin-3-yl)-N-(2-hydroxy-2-methylpropyl)-4-((S)-2-methylpyrrolidine-1-carbonyl)thiazole-2-carboxamide] | – | 0.062 | 0.018 | – | – | 109
C[C@H]1CCCN1C(=O)c1nc(C(=O)N[C@H]2C[C@H](O)C2)sc1-c1cnc(NC(C)(C)C)cc1C(F)F [Example 400, 5-(6-(tert-Butylamino)-4-(difluoromethyl)pyridin-3-yl)-N-((1R,3S)-3-hydroxycyclobutyl)-4-((S)-2-methylpyrrolidine-1-carbonyl)thiazole-2-carboxamide] | 84 | 0.056 | 0.013 | – | – | –
C[C@H]1CCCN1C(=O)c1nc(C(=O)N[C@H]2C[C@H](O)C2)sc1-c1cnc(N[C@H](C)C(F)(F)F)cc1C(F)F [Example 319, 5-(4-(Difluoromethyl)-6-(((R)-1,1,1-trifluoropropan-2-yl)amino)pyridin-3-yl)-N-((1r,3S)-3-hydroxycyclobutyl)-4-((S)-2-methylpyrrolidine-1-carbonyl)thiazole-2-carboxamide] | 91 | 0.079 | 0.029 | – | – | –

More lines, in order of falling Kd [1], values ahead:

inhibition at 3 µM (full-length human RORγt; [2]) [%] | IC50 (full-length human RORγt) [µM] | Kd [1] [µM] | RORγt (FL) Reporter Assay B or C, % inhibition (value marked *) (full-length human RORγt; Conditions B or C) | IC50 (full-length human RORγt; Conditions B or C) [µM] | inhibition at 1 µM (full-length human RORγt; at 1 μM compound concentration, read-out: RORγt (FL) Reporter Assay B or C, % inhibition) [%] | SMILES
101 | 0.0082 | 0.0049 | – | – | – | C[C@H]1CCCN1C(=O)c1nc(C(=O)N[C@H](C)C(C)(C)O)sc1-c1cnc(NC(C)(C)C)cc1C(F)F [Example 269, 5-[6-(tert-Butylamino)-4-(difluoromethyl)-3-pyridyl]-N-[(1R)-2-hydroxy-1,2-dimethyl-propyl]-4-[(2S)-2-methylpyrrolidine-1-carbonyl]thiazole-2-carboxamide]
– | – | 0.0045 | 105* % | 0.028 | – | C[C@H]1CCCN1C(=O)c1nc(C(=O)NCC2(O)CCC2)sc1-c1cnc(NC(C)(C)C)cc1C(F)F [Example 133, (S)-5-(6-(tert-Butylamino)-4-(difluoromethyl)pyridin-3-yl)-N-((1-hydroxycyclobutyl)methyl)-4-(2-methylpyrrolidine-1-carbonyl)thiazole-2-carboxamide]
107 | 0.0077 | 0.0039 | – | – | – | C[C@H]1CCCN1C(=O)c1nc(C(=O)NCCC(C)(C)O)sc1-c1cnc(NC(C)(C)C)cc1C(F)(F)F [Example 338, 5-[6-(tert-Butylamino)-4-(trifluoromethyl)-3-pyridyl]-N-(3-hydroxy-3-methyl-butyl)-4-[(2S)-2-methylpyrrolidine-1-carbonyl]thiazole-2-carboxamide]
109 | 0.11 | 0.0024 | – | – | – | C[C@H]1CCCN1C(=O)c1nc(C(=O)N2CC(C)(O)C2)sc1-c1cnc(NC(C)(C)C)cc1C(F)(F)F [Example 268, [5-[6-(tert-Butylamino)-4-(trifluoromethyl)-3-pyridyl]-2-(3-hydroxy-3-methyl-azetidine-1-carbonyl)thiazol-4-yl]-[(2S)-2-methylpyrrolidin-1-yl]methanone]
100 | 0.029 | 0.0016 | – | – | – | CC(C)[C@H](C)Nc1cc(C(F)F)c(-c2sc(C(=O)NCC(C)(C)O)nc2C(=O)N2CCC[C@@H]2C)cn1 [Example 300, 5-(4-(Difluoromethyl)-6-(((S)-3-methylbutan-2-yl)amino)pyridine-3-yl)-N-(2-hydroxy-2-methylpropyl)-4-((S)-2-methylpyrrolidine-1-carbonyl)thiazole-2-carboxamide]
107 | 0.089 | 0.0015 | – | – | – | C[C@H]1CCCN1C(=O)c1nc(C(=O)N[C@H](C)C(C)(C)O)sc1-c1cnc(N[C@H](C2CC2)C(F)(F)F)cc1C(F)F [Example 332, 5-(6-(((R)-1-Cyclopropyl-2,2,2-trifluoroethyl)amino)-4-(difluoromethyl)pyridin-3-yl)-N—((R)-3-hydroxy-3-methylbutan-2-yl)-4-((S)-2-methylpyrrolidine-1-carbonyl)thiazole-2-carboxamide]
93 | 0.015 | 0.00097 | – | – | – | C[C@H]1CCCN1C(=O)c1nc(C(=O)NC[C@@H](O)C(F)(F)F)sc1-c1cnc(NC(C)(C)C)cc1C(F)(F)F (relative stereo) [Example 354, 5-(6-(tert-Butylamino)-4-(trifluoromethyl)pyridin-3-yl)-4-((S)-2-methylpyrrolidine-1-carbonyl)-N—((R*)-3,3,3-trifluoro-2-hydroxypropyl)thiazole-2-carboxamide]
102 | 0.0052 | 0.00051 | – | – | – | C[C@H]1CC(F)(F)CN1C(=O)c1nc(C(=O)NCC(C)(C)O)sc1-c1cnc(NCC2(C(F)(F)F)CCC2)cc1C(F)F [Example 273, 4-[(2S)-4,4-Difluoro-2-methyl-pyrrolidine-1-carbonyl]-5-[4-(difluoromethyl)-6-[[1-(trifluoromethyl)cyclobutyl]methylamino]-3-pyridyl]-N-(2-hydroxy-2-methyl-propyl)thiazole-2-carboxamide]
124 | 0.0038 | 0.00038 | – | – | – | C[C@H]1CCCN1C(=O)c1nc(C(=O)NC2CCCC2O)sc1-c1cnc(NC(C)(C)C)cc1C(F)(F)F (stereo partly drawn) [Example 347, 5-[6-(tert-Butylamino)-4-(trifluoromethyl)-3-pyridyl]-N-[cis-2-hydroxycyclopentyl]-4-[(2S)-2-methylpyrrolidine-1-carbonyl]thiazole-2-carboxamide]
– | – | 0.00019 | 138* % | 0.01 | – | C[C@H]1CCCCN1C(=O)c1nc(C(=O)NCC(C)(C)O)sc1-c1cnc(NC(C)(C)C2CC2)cc1C(F)F [Example 88, (S)-5-(6-((2-Cyclopropylpropan-2-yl)amino)-4-(difluoromethyl)pyridin-3-yl)-N-(2-hydroxy-2-methylpropyl)-4-(2-methylpiperidine-1-carbonyl)thiazole-2-carboxamide]
